In patent publication US10413576B2, “Therapy for use in the treatment of tumors, acquired immunodeficiency syndrome and leukemias by dual immune biostimulation” (priority 2014, dated 2019):
Entries after “also recorded” stand apart in the source; their conditions may differ.

Test system: peripheral blood mononuclear cells (PBMC)
Assay: PBMC cell proliferation analysis (BrdU, cytofluorimetry)
Type: cell-based, human
Conditions: PBMC proliferative response vs absence of stimulation (baseline); cut-off P.I. 2
Procedure: Next, peripheral blood mononuclear cells were separated. The peripheral blood mononuclear cells (PBMC) were separated by density gradient centrifugation. For this aim, 20 ml of “buffy coat” of healthy donors from the immune-transfusion Service of Ospedale di Borgomanero (Italy) were used for each experiment, thus obtaining an average yield of 200×10^6 PBMC/buffy. The amount of separated cells was determined by cell count in Burker's chambers, using Turk's dye, which allows to discriminating between mononuclear and polymorphonuclear cells. […]
Then, the cell proliferation analysis was performed. Cell proliferation was assessed with a cytofluorimetric technique by using the bromodeoxyuridine (BrdU) nuclear labeling protocol. […] Following to 16-hour incubation at 37° C. under humidified atmosphere, 5% CO2, the cell proliferation was analyzed by a cytofluorirnetric technique. […] The cells were analyzed within 24 hours from their preparation by using a cytofluorimeter FACScalibur from Becton Dikinson Company and the analysis program CellQuest.
Results were expressed as cell proliferation index (P.I.), being calculated as ratio of the percentage of proliferating cells in the presence of stimulus and the percentage of the same in the absence of stimulation, A P.I. value greater than 2 was considered acceptable (cut-off value). […]

Phytohaemagglutinin [PHA]
cell proliferation index (P.I.): significantly higher; also recorded: greater than the cut-off value
